ChEMBL document CHEMBL3593209, “5-Aryl-1H-pyrazole-3-carboxylic acids as selective inhibitors of human carbonic anhydrases IX and XII” (Bioorg Med Chem, 2015)

Key:
Carbonic anhydrase 12 = Carbonic anhydrase 12 (Homo sapiens, UniProt O43570); assay: Inhibition of human recombinant carbonic anhydrase 12 expressed in Escherichia coli preincubated for 15 mins by stopped flow CO2 hydration method
Carbonic anhydrase 1 = Carbonic anhydrase 1 (Homo sapiens, UniProt P00915); assay: Inhibition of human recombinant carbonic anhydrase 1 expressed in Escherichia coli preincubated for 15 mins by stopped flow CO2 hydration method
Chain of Carbonic anhydrase 1 (P00915 whole entry): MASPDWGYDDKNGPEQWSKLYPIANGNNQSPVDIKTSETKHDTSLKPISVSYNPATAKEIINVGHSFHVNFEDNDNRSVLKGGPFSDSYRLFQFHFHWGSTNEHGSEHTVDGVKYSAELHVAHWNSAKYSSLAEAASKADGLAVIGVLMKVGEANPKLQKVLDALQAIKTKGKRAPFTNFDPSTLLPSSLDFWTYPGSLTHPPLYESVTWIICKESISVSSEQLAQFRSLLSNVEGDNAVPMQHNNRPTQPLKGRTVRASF

Carbonic anhydrase 2 = Carbonic anhydrase 2 (Homo sapiens, UniProt P00918); assay: Inhibition of human recombinant carbonic anhydrase 2 expressed in Escherichia coli preincubated for 15 mins by stopped flow CO2 hydration method
Carbonic anhydrase 9 = Carbonic anhydrase 9 (Homo sapiens, UniProt Q16790)
Description: Inhibition of human recombinant carbonic anhydrase 9 expressed in Escherichia coli preincubated for 15 mins by stopped flow CO2 hydration method

[1] = Dissociation constant, acidic pKa of the compound by spectrophotometric analysis

Chain of Carbonic anhydrase 12 (O43570 whole entry): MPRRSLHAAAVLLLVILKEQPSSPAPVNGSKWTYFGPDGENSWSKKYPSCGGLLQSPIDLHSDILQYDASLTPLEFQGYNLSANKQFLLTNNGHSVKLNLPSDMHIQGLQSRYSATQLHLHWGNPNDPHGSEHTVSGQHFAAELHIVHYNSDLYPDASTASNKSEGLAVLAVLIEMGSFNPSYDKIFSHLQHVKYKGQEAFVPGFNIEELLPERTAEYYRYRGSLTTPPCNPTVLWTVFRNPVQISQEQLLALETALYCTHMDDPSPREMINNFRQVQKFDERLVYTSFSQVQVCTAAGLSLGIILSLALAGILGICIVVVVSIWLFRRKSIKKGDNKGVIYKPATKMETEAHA

Ki (Carbonic anhydrase 12) [µM] | Ki (Carbonic anhydrase 1) [µM] | Ki (Carbonic anhydrase 2) [µM] | Ki (Carbonic anhydrase 9) [µM] | pKa [1] | Compound
50 | > 50 | > 50 | > 50 |  | O=C(O)c1cc(-c2ccc(Cl)cc2)n[nH]1
4.5 | > 50 | > 50 | 42 |  | CCc1ccc(-c2cc(C(=O)O)[nH]n2)cc1
41 | > 50 | > 50 | > 50 |  | O=C(O)c1cc(-c2ccc(O)cc2)n[nH]1
> 50 | > 50 | > 50 | 49.5 | 3.31 | COc1ccc(-c2cc(C(=O)O)n[nH]2)cc1
> 50 | > 50 | > 50 | 45 |  | Cc1ccc(-c2cc(C(=O)O)[nH]n2)c(C)c1
> 50 | > 50 | > 50 | 48 |  | Cc1ccc(-c2cc(C(=O)O)[nH]n2)cc1C
38.5 | > 50 | > 50 | > 50 |  | O=C(O)c1cc(-c2ccc(F)cc2)n[nH]1
> 50 | > 50 | > 50 | > 50 |  | CC(C)c1ccc(-c2cc(C(=O)O)[nH]n2)cc1
> 50 | > 50 | > 50 | > 50 |  | Cc1ccc(-c2cc(C(=O)O)[nH]n2)cc1
 | > 50 | > 50 | > 50 |  | O=C(O)c1cc(-c2ccc3ccccc3c2)[nH]n1
 | > 50 | > 50 | 39 |  | CCCCc1ccc(-c2cc(C(=O)O)n[nH]2)cc1
 | > 50 | > 50 | 5 |  | CC(C)(C)c1ccc(-c2cc(C(=O)O)n[nH]2)cc1
> 50 | > 50 | > 50 | 23.5 |  | Cc1cc(C)c(-c2cc(C(=O)O)n[nH]2)cc1C
> 50 | > 50 | > 50 | 5 |  | Cc1cc(C)c(C)c(-c2cc(C(=O)O)n[nH]2)c1C
> 50 | > 50 | > 50 | > 50 |  | CCc1cc(CC)c(-c2cc(C(=O)O)n[nH]2)c(CC)c1
> 50 | > 50 | > 50 | 16 |  | CC(C)c1ccc(-c2cc(C(=O)O)n[nH]2)c(C(C)C)c1
 | > 50 | > 50 | 39 |  | CC(C)c1cc(C(C)C)c(-c2cc(C(=O)O)n[nH]2)c(C(C)C)c1
 | > 50 | > 50 | > 50 |  | O=C(O)c1cc(-c2ccc3c(c2)CCCC3)[nH]n1
 | > 50 | > 50 | > 50 |  | O=C(O)c1cc(-c2ccc(-c3ccccc3)cc2)[nH]n1
 | > 50 | > 50 | > 50 |  | O=C(O)c1cc(-c2ccc(N3CCCC3)cc2)[nH]n1
> 50 | > 50 | > 50 | 23.5 |  | O=C(O)c1cc(-c2cccc(Br)c2)[nH]n1
 | > 50 | > 50 | > 50 |  | COc1ccccc1-c1cc(C(=O)O)n[nH]1
> 50 | > 50 | > 50 | 22.5 |  | COc1cc(C)c(-c2cc(C(=O)O)n[nH]2)cc1C
